Where two headings read alike, the source gives them in different places.

Holding throughout (test): Ambit kinase profiling, competition binding
For one assay, the target named is T1, HPK1 (Homo sapiens, UniProt Q92918).
T1 construct: purchased Ambit Biosciences (KINOMEscan)
The procedure:
(§1) Also included in the kinase profile are four isoforms of PKC (δ, ε, η, θ) and eight isoforms of CAMKs (CAMKIα, δ, γ; CAMKIIα, β, δ, γ; CAMK4).
(§2) The global kinase profiling experiment was performed by Ambit Biosciences.

A further assay has as its target T2, LATS2 (Homo sapiens, UniProt Q9NRM7).
T2 construct: purchased Ambit Biosciences (KINOMEscan)
T2 sequence (Q9NRM7 1-1088): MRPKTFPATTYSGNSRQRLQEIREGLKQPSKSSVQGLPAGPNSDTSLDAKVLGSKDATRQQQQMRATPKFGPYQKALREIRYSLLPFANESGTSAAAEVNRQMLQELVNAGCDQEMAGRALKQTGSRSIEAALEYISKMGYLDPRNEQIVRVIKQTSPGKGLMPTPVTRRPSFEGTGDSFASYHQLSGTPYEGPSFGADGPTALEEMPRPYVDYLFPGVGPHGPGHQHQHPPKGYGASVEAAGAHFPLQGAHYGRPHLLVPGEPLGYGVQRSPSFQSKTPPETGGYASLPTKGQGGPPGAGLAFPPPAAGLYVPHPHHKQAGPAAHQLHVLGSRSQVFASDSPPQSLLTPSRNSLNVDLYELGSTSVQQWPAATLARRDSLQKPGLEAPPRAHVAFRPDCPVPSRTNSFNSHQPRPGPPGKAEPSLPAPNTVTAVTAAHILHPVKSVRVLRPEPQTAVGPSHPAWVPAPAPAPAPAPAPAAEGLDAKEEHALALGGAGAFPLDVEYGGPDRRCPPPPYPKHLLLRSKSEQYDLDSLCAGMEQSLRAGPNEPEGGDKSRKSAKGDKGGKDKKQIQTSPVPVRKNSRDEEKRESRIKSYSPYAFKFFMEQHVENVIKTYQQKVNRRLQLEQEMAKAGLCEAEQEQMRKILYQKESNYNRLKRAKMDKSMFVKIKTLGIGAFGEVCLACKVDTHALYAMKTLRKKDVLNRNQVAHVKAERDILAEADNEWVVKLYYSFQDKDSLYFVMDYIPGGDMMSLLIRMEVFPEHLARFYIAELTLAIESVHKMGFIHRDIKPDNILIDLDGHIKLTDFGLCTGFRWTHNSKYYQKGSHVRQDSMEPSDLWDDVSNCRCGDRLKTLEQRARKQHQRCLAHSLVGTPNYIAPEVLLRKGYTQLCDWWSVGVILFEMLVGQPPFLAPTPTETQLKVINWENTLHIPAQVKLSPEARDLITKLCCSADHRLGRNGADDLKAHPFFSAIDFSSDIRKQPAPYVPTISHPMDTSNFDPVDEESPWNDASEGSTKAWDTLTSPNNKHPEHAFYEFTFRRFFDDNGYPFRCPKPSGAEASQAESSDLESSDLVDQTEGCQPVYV
The conditions noted are these: for % Competition: 10 µM. Here is the method: as §1, §2

A further assay deals with T3, PAK7 (Homo sapiens, UniProt Q9P286).
T3 construct: purchased Ambit Biosciences (KINOMEscan)
T3 sequence (Q9P286 whole entry): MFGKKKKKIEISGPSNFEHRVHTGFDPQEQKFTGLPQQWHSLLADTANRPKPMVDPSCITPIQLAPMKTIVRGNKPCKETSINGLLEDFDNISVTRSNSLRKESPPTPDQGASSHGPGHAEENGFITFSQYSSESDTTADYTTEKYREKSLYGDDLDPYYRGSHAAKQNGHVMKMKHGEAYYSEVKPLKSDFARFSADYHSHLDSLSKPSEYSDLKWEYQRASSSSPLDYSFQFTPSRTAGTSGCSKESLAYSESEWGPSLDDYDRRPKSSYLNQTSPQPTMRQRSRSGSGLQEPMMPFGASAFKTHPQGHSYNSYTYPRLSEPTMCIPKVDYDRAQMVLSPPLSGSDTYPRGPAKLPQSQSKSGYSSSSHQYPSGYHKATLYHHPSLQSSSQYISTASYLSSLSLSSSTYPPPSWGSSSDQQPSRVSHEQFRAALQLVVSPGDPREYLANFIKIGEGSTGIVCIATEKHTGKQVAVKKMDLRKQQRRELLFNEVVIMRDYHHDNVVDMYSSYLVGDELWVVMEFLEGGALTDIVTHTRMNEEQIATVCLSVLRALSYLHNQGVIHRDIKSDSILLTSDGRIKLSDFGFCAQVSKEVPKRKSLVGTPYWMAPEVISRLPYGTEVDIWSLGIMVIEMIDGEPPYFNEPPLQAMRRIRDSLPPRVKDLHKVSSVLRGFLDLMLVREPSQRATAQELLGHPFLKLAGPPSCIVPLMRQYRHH
Here is the method: as §1, §2

In a further assay the target is T4, LATS1 (Homo sapiens, UniProt O95835).
T4 construct: purchased Ambit Biosciences (KINOMEscan)
T4 sequence (O95835 1-1130): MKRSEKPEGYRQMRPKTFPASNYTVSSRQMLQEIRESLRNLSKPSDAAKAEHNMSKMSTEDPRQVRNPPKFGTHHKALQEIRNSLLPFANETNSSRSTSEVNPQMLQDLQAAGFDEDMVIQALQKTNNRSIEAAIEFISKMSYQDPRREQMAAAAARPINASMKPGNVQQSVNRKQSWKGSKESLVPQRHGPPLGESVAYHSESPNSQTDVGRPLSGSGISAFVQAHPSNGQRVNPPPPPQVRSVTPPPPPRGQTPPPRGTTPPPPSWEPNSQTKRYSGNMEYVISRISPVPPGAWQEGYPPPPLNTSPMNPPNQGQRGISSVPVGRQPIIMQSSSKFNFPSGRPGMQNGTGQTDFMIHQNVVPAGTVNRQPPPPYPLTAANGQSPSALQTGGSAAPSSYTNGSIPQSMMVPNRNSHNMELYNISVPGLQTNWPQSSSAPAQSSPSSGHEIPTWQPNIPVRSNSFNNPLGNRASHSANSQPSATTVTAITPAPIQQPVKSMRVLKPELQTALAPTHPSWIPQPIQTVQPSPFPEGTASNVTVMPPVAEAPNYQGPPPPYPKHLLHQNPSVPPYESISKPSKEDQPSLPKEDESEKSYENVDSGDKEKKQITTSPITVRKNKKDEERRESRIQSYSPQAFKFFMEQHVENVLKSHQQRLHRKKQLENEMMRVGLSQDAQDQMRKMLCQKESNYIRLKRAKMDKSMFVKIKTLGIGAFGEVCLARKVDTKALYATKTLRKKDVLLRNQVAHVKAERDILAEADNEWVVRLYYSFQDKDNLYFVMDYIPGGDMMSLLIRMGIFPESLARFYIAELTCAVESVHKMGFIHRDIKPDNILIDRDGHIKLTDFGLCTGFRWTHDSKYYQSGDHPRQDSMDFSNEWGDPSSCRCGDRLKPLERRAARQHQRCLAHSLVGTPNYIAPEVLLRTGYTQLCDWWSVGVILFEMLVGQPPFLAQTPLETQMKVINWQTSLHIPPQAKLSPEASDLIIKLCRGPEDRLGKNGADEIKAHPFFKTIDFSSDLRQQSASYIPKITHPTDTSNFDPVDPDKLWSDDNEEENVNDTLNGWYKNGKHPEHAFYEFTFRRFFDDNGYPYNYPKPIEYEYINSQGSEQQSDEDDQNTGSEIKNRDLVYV
Here is the method: as §1, §2

A further assay deals with T5, CSNK1E (Homo sapiens, UniProt P49674).
T5 construct: purchased Ambit Biosciences (KINOMEscan)
T5 sequence (P49674 whole entry): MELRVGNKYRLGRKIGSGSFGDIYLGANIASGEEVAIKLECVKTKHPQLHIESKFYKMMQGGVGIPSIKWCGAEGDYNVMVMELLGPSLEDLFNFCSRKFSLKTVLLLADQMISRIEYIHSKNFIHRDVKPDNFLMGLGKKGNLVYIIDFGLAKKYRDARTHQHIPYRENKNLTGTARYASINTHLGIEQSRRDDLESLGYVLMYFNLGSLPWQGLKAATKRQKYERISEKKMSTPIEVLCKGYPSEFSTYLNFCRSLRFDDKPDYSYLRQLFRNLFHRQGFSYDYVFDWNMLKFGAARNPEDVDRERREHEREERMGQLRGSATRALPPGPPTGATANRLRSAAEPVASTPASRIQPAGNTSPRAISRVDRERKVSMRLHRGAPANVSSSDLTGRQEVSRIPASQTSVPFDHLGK
Here is the method:
as §1, §2

The next assay addresses T6, CSNK1G3 (Homo sapiens, UniProt Q9Y6M4).
T6 construct: purchased Ambit Biosciences (KINOMEscan)
The note with it: for % Competition: 10 µM. Here is the method:
as §1, §2

The target in the next assay is T7, CDK7 (Homo sapiens, UniProt P50613).
T7 construct: purchased Ambit Biosciences (KINOMEscan)
T7 sequence (P50613 whole entry): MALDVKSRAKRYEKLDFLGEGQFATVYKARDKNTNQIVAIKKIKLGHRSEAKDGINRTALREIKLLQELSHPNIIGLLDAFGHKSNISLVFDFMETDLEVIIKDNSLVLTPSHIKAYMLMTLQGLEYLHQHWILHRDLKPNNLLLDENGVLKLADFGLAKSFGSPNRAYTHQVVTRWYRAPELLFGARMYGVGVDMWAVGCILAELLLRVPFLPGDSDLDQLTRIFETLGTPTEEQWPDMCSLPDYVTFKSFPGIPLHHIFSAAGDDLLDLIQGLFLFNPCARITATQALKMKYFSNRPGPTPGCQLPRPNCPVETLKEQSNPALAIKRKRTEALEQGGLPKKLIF
The procedure:
as §1, §2

T1 sequence (Q92918 whole entry): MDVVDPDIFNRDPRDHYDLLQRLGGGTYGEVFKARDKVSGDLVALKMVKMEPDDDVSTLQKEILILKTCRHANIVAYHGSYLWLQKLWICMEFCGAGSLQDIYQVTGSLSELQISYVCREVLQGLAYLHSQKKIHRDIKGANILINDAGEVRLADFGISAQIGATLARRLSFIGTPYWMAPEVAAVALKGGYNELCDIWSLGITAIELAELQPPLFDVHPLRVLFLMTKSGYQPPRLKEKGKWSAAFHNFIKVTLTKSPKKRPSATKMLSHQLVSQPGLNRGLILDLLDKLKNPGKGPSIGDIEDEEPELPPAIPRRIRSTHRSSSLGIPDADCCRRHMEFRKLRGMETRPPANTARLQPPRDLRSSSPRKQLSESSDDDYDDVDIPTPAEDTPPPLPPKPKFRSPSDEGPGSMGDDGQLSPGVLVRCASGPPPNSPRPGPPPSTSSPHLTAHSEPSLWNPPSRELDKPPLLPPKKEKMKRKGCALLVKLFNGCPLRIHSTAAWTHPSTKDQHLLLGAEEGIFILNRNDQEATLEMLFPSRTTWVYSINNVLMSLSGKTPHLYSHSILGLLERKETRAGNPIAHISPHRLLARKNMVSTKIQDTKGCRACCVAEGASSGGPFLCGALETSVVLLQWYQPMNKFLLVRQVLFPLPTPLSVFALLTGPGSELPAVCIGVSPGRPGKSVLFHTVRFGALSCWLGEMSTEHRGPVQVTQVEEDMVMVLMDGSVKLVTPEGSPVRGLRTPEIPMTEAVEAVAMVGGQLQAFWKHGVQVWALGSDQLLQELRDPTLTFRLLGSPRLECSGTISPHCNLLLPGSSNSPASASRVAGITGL
T6 sequence (Q9Y6M4 whole entry): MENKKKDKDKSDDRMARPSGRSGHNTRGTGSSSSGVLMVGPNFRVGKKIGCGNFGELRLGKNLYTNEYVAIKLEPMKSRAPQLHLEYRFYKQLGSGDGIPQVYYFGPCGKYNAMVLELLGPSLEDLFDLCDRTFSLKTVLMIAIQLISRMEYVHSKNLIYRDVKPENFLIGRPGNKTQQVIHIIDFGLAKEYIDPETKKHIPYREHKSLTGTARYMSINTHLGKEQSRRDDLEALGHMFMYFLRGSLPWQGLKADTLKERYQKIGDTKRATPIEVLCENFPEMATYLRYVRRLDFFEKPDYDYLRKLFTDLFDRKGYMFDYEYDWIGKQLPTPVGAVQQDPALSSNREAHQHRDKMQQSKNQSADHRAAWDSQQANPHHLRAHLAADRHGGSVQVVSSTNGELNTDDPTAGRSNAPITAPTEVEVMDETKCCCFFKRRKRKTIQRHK

For the compound `CC(O)CNc1cc(-c2[nH]c3cccnc3c2-c2ccc(F)cc2)ccn1` (stereo not drawn) [Compound 140], the inhibition at 10 µM was < 50% at HPK1 (read-out: % Competition); < 50% on PAK7 (read-out: % Competition); < 50% on LATS1 (read-out: % Competition); 99 to 100% at CSNK1E (read-out: % Competition, CSNK1E, 10 µM); < 50% on CDK7 (read-out: % Competition). In addition, the “% Competition” value at LATS2 is given as <50%; at CSNK1G3, 91%.

Consider `Fc1ccc(-c2c(-c3ccncc3)[nH]c3nccnc23)cc1` [RO1155697-000-005], for which the inhibition at 10 µM at HPK1 (HPK1, compound concentration 10 uM, read-out: Percent Competition) was determined as 67%; at PAK7 (PAK7, compound concentration 10 uM, read-out: Percent Competition) it was 86%; at LATS1 (LATS1, compound concentration 10 uM, read-out: Percent Competition) it was 68%; on CSNK1E (CSNK1E, compound concentration 10 uM, read-out: Percent Competition), 100%; on CDK7 (CDK7, compound concentration 10 uM, read-out: Percent Competition), 100%. The “Percent Competition” value is recorded as 82% on LATS2 (compound concentration 10 uM) and 86% on CSNK1G3 (compound concentration 10 uM).

For `Fc1ccc(-c2c(-c3ccncc3)[nH]c3nccnc23)cc1` [Compound 122], the inhibition at 10 µM at HPK1 (HPK1, 10 µM, read-out: % Competition) is 67%; at PAK7 (PAK7, 10 µM, read-out: % Competition) it was 86%; at LATS1 (LATS1, 10 µM, read-out: % Competition) it was 68%; at CSNK1E (CSNK1E, 10 µM, read-out: % Competition), 100%; on CDK7 (CDK7, 10 µM, read-out: % Competition), 100%. In addition, the “% Competition” value at LATS2 is reported as 82%; at CSNK1G3 it was 86%.
